The text below walks through data of patent publication US6645918B1, “N-([1,2,4]triazoloazinyl)thiophenesulfonamide compounds and their use as herbicides” (Dow AgroSciences LLC, priority 2000, dated 2003).

Holding throughout (assay type): in vivo
Test [1] has as its system cocklebur (Xanthium strumarium). The experiment in a line: Preemergence herbicidal activity, cocklebur. As to conditions: 4.4 g/Ha, soil spray, visual after 3 weeks; 0 no injury, 100 complete kill or no germination. As to the method:
(§1) The soil matrix was contained in plastic pots with a surface area of 161 square centimeters. When required to ensure good germination and healthy plants, a fungicide treatment and/or other chemical or physical treatment was applied. A weighed amount, determined by the highest rate to be tested, of each test compound was placed in a 20 mL glass vial and was dissolved in 8 mL of a 97:3 v/v (volume/volume) mixture of acetone and dimethyl sulfoxide to obtain concentrated stock solutions. […] The stock solutions obtained were diluted with a 99.9:0.1 mixture of water and Tween® 155 surfactant (ethoxylated sorbitan fatty acid ester) to obtain application solutions of known concentration. The solutions containing the highest concentration to be tested were prepared by diluting 4 mL aliquots of the stock solution with 8.5 mL of the mixture and lower concentrations were prepared by dilution of appropriate smaller portions of the stock solution. A 2.5 mL aliquot of each solution of known concentration was sprayed evenly onto the soil of each seeded pot using a Cornwall 5.0 mL glass syringe fitted with a TeeJet TN-3 hollow cone nozzle to obtain thorough coverage of the soil in each pot. Control pots were sprayed in the same manner with the aqueous mixture. A highest application rate of 4.48 kg/ha is achieved when 50 mg of test compound is employed. The treated pots and control pots were placed in a greenhouse with an approximately 15 hr photoperiod which was maintained at about 23-29° C. during the day and 22-28° C. during the night. Nutrients and water were added on a regular basis and supplemental lighting was provided with overhead metal halide 1000 Watt lamps as necessary. The water was added by top-irrigation. After 3 weeks the condition of the test plants that germinated and grew as compared with that of the untreated plants that germinated and grew was determined visually and scored on a scale of 0 to 100 percent where 0 corresponds to no injury and 100 corresponds to complete kill or no germination.

The subject of test [2] is crabgrass (Digitaria sanguinalis). Description: Preemergence herbicidal activity, crabgrass. The settings on record: 4.4 g/Ha, soil spray, visual after 3 weeks; 0 no injury, 100 complete kill or no germination. As for the experimental part:
as §1

The subject of test [3] is wild oats (Avena fatua). Description: Preemergence herbicidal activity, wild oats. The settings on record: 4.4 g/Ha, soil spray, visual after 3 weeks; 0 no injury, 100 complete kill or no germination. As to the method: as §1
In test [4] the test system is viola (Viola tricolor). The experiment in a line: Postemergence herbicidal activity, viola. As to conditions: foliar spray, visual after 2 weeks, 0 no injury, 100 complete kill. As to the method:
(§2) Seeds of the desired test plant species were planted in Grace-Sierra MetroMix® 306 planting mixture, which typically has a pH of 6.0 to 6.8 and an organic matter content of about 30 percent, in plastic pots with a surface area of 64 square centimeters. When required to ensure good germination and healthy plants, a fungicide treatment and/or other chemical or physical treatment was applied. The plants were grown for 7-21 days in a greenhouse with an approximately 15 hr photoperiod which was maintained at about 23-29° C. during the day and 22-28° C. during the night. Nutrients and water were added on a regular basis and supplemental lighting was provided with overhead metal halide 1000 Watt lamps as necessary. The plants were employed for testing when they reached the first or second true leaf stage. A weighed amount of each test compound, determined by the highest rate to be tested, was placed in a 20 mL glass vial and was dissolved in 4 mL of a 97:3 v/v (volume/volume) mixture of acetone and dimethyl sulfoxide to obtain concentrated stock solutions. […] The concentrated stock solutions obtained were diluted with an aqueous mixture containing acetone, water, iso-propyl alcohol, dimethyl sulfoxide, Atplus 411F crop oil concentrate, and Triton X-155 surfactant (methylenebisdiamyl phenoxy polyethoxy ethanol) in a 48.5:39:10:1.5:1.0:0.02 v/v ratio to obtain spray solutions of known concentration. The solutions containing the highest concentration to be tested were prepared by diluting 2 mL aliquots of the stock solution with 13 mL of the mixture and lower concentrations were prepared by dilution of appropriate smaller portions of the stock solution. Approximately 1.5 mL aliquots of each solution of known concentration were sprayed evenly onto each of the test plant pots using a DeVilbiss atomizer driven by compressed air pressure of 2 to 4 psi (140 to 280 kilopascals) to obtain thorough coverage of each plant. Control plants were sprayed in the same manner with the aqueous mixture. In this test an application rate of 1 ppm results in the application of approximately 1 g/ha. The treated plants and control plants were placed in a greenhouse as described above and watered by sub-irrigation to prevent wash-off of the test compounds. After 2 weeks the condition of the test plants as compared with that of the untreated plants was determined visually and scored on a scale of 0 to 100 percent where 0 corresponds to no injury and 100 corresponds to complete kill.

Test [5] has as its system velvetleaf (Abutilion theophrasti). The experiment in a line: Postemergence herbicidal activity, velvetleaf. As to conditions: foliar spray, visual after 2 weeks, 0 no injury, 100 complete kill. As to the method: as §2
Test [6] deals with wild oats (Avena fatua). Description: Postemergence herbicidal activity, wild oats. As to conditions: foliar spray, visual after 2 weeks, 0 no injury, 100 complete kill. As for the experimental part: as §2
Test [7] concerns chickweed (Stellaria media). The experiment in a line: Postemergence herbicidal activity, chickweed. As to conditions: foliar spray, visual after 2 weeks, 0 no injury, 100 complete kill. As for the experimental part:
as §2

Test [8] relates to blackgrass (Alopecurus myosuroides). Description: Postemergence herbicidal activity, blackgrass. The settings on record: foliar spray, visual after 2 weeks, 0 no injury, 100 complete kill. As to the method: as §2
The subject of test [9] is giant foxtail (Setaria faberi). Description: Preemergence herbicidal activity, giant foxtail. As to conditions: 4.4 g/Ha, soil spray, visual after 3 weeks; 0 no injury, 100 complete kill or no germination. As for the experimental part:
as §1

Test [10] relates to Rox orange sorghum (Sorghum bicolor). Description: Postemergence herbicidal activity, Rox orange sorghum. As to conditions: foliar spray, visual after 2 weeks, 0 no injury, 100 complete kill. As for the experimental part:
as §2

Test [11] deals with morningglory (Ipomoea hederacea). Description: Preemergence herbicidal activity, morningglory. As to conditions: 4.4 g/Ha, soil spray, visual after 3 weeks; 0 no injury, 100 complete kill or no germination. As to the method:
as §1

The subject of test [12] is giant foxtail (Setaria faberi). The experiment in a line: Postemergence herbicidal activity, giant foxtail. The settings on record: foliar spray, visual after 2 weeks, 0 no injury, 100 complete kill. As for the experimental part: as §2
Test [13] relates to pigweed (Amaranthus retroflexus). Description: Preemergence herbicidal activity, pigweed. The settings on record: 4.4 g/Ha, soil spray, visual after 3 weeks; 0 no injury, 100 complete kill or no germination. As to the method:
as §1

The test system of test [14] is wild poinsettia (Euphorbia heterophylla). The experiment in a line: Preemergence herbicidal activity, wild poinsettia. The settings on record: 4.4 g/Ha, soil spray, visual after 3 weeks; 0 no injury, 100 complete kill or no germination. As for the experimental part:
as §1

Test [15] concerns barnyardgrass (Echinochloa crus-galli). The experiment in a line: Preemergence herbicidal activity, barnyardgrass. The settings on record: 4.4 g/Ha, soil spray, visual after 3 weeks; 0 no injury, 100 complete kill or no germination. As to the method: as §1
For test [16], the system named is lambsquarters (Chenopodium album). The experiment in a line: Postemergence herbicidal activity, lambsquarters. As to conditions: foliar spray, visual after 2 weeks, 0 no injury, 100 complete kill. As for the experimental part: as §2
The subject of test [17] is morningglory (Ipomoea hederacea). The experiment in a line: Postemergence herbicidal activity, morningglory. As to conditions: foliar spray, visual after 2 weeks, 0 no injury, 100 complete kill. As for the experimental part:
as §2

Test [18] concerns velvetleaf (Abutilion theophrasti). The experiment in a line: Preemergence herbicidal activity, velvetleaf. The settings on record: 4.4 g/Ha, soil spray, visual after 3 weeks; 0 no injury, 100 complete kill or no germination. As to the method: as §1
Test [19] relates to Rox orange sorghum (Sorghum bicolor). The experiment in a line: Preemergence herbicidal activity, Rox orange sorghum. As to conditions: 4.4 g/Ha, soil spray, visual after 3 weeks; 0 no injury, 100 complete kill or no germination. As to the method: as §1
Test [20] concerns blackgrass (Alopecurus myosuroides). Description: Preemergence herbicidal activity, blackgrass. The settings on record: 4.4 g/Ha, soil spray, visual after 3 weeks; 0 no injury, 100 complete kill or no germination. As for the experimental part:
as §1

The subject of test [21] is cocklebur (Xanthium strumarium). The experiment in a line: Postemergence herbicidal activity, cocklebur. As to conditions: foliar spray, visual after 2 weeks, 0 no injury, 100 complete kill. As for the experimental part:
as §2

Test [22] relates to pigweed (Amaranthus retroflexus). The experiment in a line: Postemergence herbicidal activity, pigweed. The settings on record: 7.8 ppm, foliar spray, visual after 2 weeks; 0 no injury, 100 complete kill. As for the experimental part: as §2
Test [23] concerns lambsquarters (Chenopodium album). The experiment in a line: Preemergence herbicidal activity, lambsquarters. The settings on record: 4.4 g/Ha, soil spray, visual after 3 weeks; 0 no injury, 100 complete kill or no germination. As for the experimental part:
as §1

`COc1cscc1S(=O)(=O)Nc1nc2c(OC)cnc(OC)n2n1` [Compound 7, N-(5,8-dimethoxy[1,2,4]triazolo[1,5-c]pyrimidin-2-yl)-4-methoxythiophene-3-sulfonamide]: the “XANST preemergence injury score 0-100” value in [1] turned out to be 80%. In test [2], the “DIGSA preemergence injury score 0-100” value amounted to 100%. Moreover, the “AVEFA preemergence injury score 0-100” value in [3] is reported as 100%. For the same compound, in test [4] (1.9 ppm), the “VIOTR postemergence injury score 0-100” value was determined as 80%. Also, the “ABUTH postemergence injury score 0-100” value in test [5] (1.9 ppm) was 80%. In test [6] (1.9 ppm), the “AVEFA postemergence injury score 0-100” value is on record as 98%. Further, the “STEME postemergence injury score 0-100” value in test [7] (1.9 ppm) turned out to be 98%. In addition, the “ALOMY postemergence injury score 0-100” value in test [8] (1.9 ppm) is recorded as 98%. The “SETFA preemergence injury score 0-100” value in test [9] was found to be 100%. For the same compound, the “SORBI postemergence injury score 0-100” value in test [10] (1.9 ppm) is recorded as 98%. Also, the “IPOHE preemergence injury score 0-100” value in test [11] was determined as 85%. In addition, the “SETFA postemergence injury score 0-100” value in test [12] (1.9 ppm) amounted to 100%. The “AMARE preemergence injury score 0-100” value in test [13] is on record as 95%. In addition, the “EPHHL preemergence injury score 0-100” value in test [14] is 85%. Besides, the “ECHCG preemergence injury score 0-100” value in [15] amounted to 99%. Besides, the “CHEAL postemergence injury score 0-100” value in test [16] (1.9 ppm) amounted to 60%. Further, the “IPOHE postemergence injury score 0-100” value in [17] (1.9 ppm) was found to be 80%. Also, the “ABUTH preemergence injury score 0-100” value in test [18] came out at 95%. Besides, the “SORBI preemergence injury score 0-100” value in test [19] was 100%. In addition, the “ALOMY preemergence injury score 0-100” value in test [20] amounted to 100%. For the same compound, in [21] (1.9 ppm), the “XANST postemergence injury score 0-100” value was determined as 80%.

In the case of `CCOc1cscc1S(=O)(=O)Nc1nc2c(OC)cnc(OC)n2n1` [Compound 13], the “XANST preemergence injury score 0-100” value in test [1] turned out to be 80%. Further, the “DIGSA preemergence injury score 0-100” value in [2] is recorded as 100%. Moreover, in test [3], the “AVEFA preemergence injury score 0-100” value is recorded as 100%. Further, the “VIOTR postemergence injury score 0-100” value in test [4] (7.8 ppm) is recorded as 75%. In addition, the “ABUTH postemergence injury score 0-100” value in [5] (7.8 ppm) was determined as 95%. In addition, the “AVEFA postemergence injury score 0-100” value in [6] (7.8 ppm) came to 85%. Also, the “STEME postemergence injury score 0-100” value in test [7] (7.8 ppm) was determined as 95%. For the same compound, the “ALOMY postemergence injury score 0-100” value in test [8] (7.8 ppm) was found to be 80%. The “SETFA preemergence injury score 0-100” value in [9] stood at 100%. In [10] (7.8 ppm), the “SORBI postemergence injury score 0-100” value came out at 95%. Moreover, the “IPOHE preemergence injury score 0-100” value in test [11] was determined as 90%. Besides, the “SETFA postemergence injury score 0-100” value in test [12] (7.8 ppm) is reported as 95%. Further, the “AMARE preemergence injury score 0-100” value in test [13] amounted to 90%. Also, in [14], the “EPHHL preemergence injury score 0-100” value was found to be 100%. Moreover, the “ECHCG preemergence injury score 0-100” value in [15] is listed as 100%. Further, the “CHEAL postemergence injury score 0-100” value in test [16] (7.8 ppm) came to 90%. Further, the “AMARE postemergence injury score 0-100” value in test [22] is listed as 100%. The “CHEAL preemergence injury score 0-100” value in [23] was determined as 100%. Further, the “IPOHE postemergence injury score 0-100” value in [17] (7.8 ppm) stood at 75%. Further, in test [18], the “ABUTH preemergence injury score 0-100” value was 80%. The “SORBI preemergence injury score 0-100” value in test [19] was 100%. Further, the “ALOMY preemergence injury score 0-100” value in test [20] is 100%. Also, the “XANST postemergence injury score 0-100” value in [21] (7.8 ppm) was found to be 95%.
